{"source": "patent US8580971B2", "about": "“Alkyl-analide producing method” (Bayer CropScience AG, priority 2005, dated 2013)", "key": {"[1]": {"assay": "logP determination by HPLC on reversed-phase column (C18), EEC Directive 79/831 Annex V.A8", "assay_type": "physicochemical", "conditions": "pH 2.3, HPLC reversed-phase C18, 43° C., 0.1% aqueous phosphoric acid/acetonitrile", "method": "The logP values stated in the above tables and preparation examples are determined as described in EEC Directive 79/831 Annex V.A8 by means of HPLC (high performance liquid chromatography) on a reversed-phase column (C18). Temperature: 43° C. The determination is effected in the acidic range at pH 2.3 using 0.1% aqueous phosphoric acid and acetonitrile as eluents; linear gradient from 10% acetonitrile to 90% acetonitrile. The calibration is effected with unbranched alkan-2-ones (having 3 to 16 carbon atoms) whose logP values are known (determination of the logP values with reference to the retention times by linear interpolation between two successive alkanones)."}, "[2]": {"test_system": "Botrytis cinerea", "assay": "Botrytis test (bean)/protective", "assay_type": "in vivo", "conditions": "protective spray, application rate 100 ppm, lesion size evaluated 2 days after inoculation", "method": "[table] To prepare an expedient active compound preparation, 1 part by weight of active compound is mixed with the stated amounts of solvent and emulsifier, and the concentrate is diluted to the desired concentration with water. To test for protective activity, young plants are sprayed with the active compound preparation at the application rate stated. After the spray coating has dried on, 2 small agar blocks which sustain the growth of Botrytis cinerea are placed on each leaf. The inoculated plants are placed in a darkened chamber at approximately 20° C. and 100% relative atmospheric humidity. 2 days after the inoculation, the size of the lesions on the leaves is evaluated. 0% means an efficacy which corresponds to that of the control, while an efficacy of 100% means that no disease is observed."}, "[3]": {"test_system": "Leptosphaeria nodorum", "assay": "Leptosphaeria nodorum test (wheat)/protective", "assay_type": "in vivo", "conditions": "protective spray, application rate 1000 ppm, evaluated 10 days after inoculation", "method": "Leptosphaeria nodorum Test (Wheat)/Protective To prepare an expedient active compound preparation, 1 part by weight of active compound is mixed with the stated amounts of solvent and emulsifier, and the concentrate is diluted to the desired concentration with water. To test for protective activity, young plants are sprayed with the active compound preparation at the application rate stated. After the spray coating has dried on, the plants are sprayed with a spore suspension of Leptosphaeria nodorum. The plants remain in an incubation cabinet for 48 hours at 20° C. and 100% relative atmospheric humidity. The plants are then placed into a greenhouse at a temperature of approximately 15° C. and a relative atmospheric humidity of approximately 80%. The test is evaluated 10 days after the inoculation. 0% means an efficacy which corresponds to that of the control, while an efficacy of 100% means that no disease is observed."}, "[4]": {"test_system": "Erysiphe graminis fsp. hordei", "assay": "Erysiphe test (barley)/protective", "assay_type": "in vivo", "conditions": "protective spray, application rate 1000 ppm, evaluated 7 days after inoculation", "method": "Erysiphe Test (Barley)/Protective To prepare an expedient active compound preparation, 1 part by weight of active compound is mixed with the stated amounts of solvent and emulsifier, and the concentrate is diluted to the desired concentration with water. To test for protective activity, young plants are sprayed with the active compound preparation at the application rate stated. After the spray coating has dried on, the plants are dusted with spores of Erysiphe graminis fsp. hordei. The plants are placed in a greenhouse at a temperature of approximately 20° C. and a relative atmospheric humidity of approximately 80% to favour the development of mildew pustules. The test is evaluated 7 days after the inoculation. 0% means an efficacy which corresponds to that of the control, while an efficacy of 100% means that no disease is observed."}, "[5]": {"test_system": "Pyrenophora teres", "assay": "Pyrenophora teres test (barley)/protective", "assay_type": "in vivo", "conditions": "protective spray, application rate 1000 ppm, evaluated 8 days after inoculation", "method": "Pyrenophora teres Test (Barley)/Protective To prepare an expedient active compound preparation, 1 part by weight of active compound is mixed with the stated amounts of solvent and emulsifier, and the concentrate is diluted to the desired concentration with water. To test for protective activity, young plants are sprayed with the active compound preparation at the application rate stated. After the spray coating has dried on, the plants are sprayed with a conidial suspension of Pyrenophora teres. The plants remain in an incubation cabinet for 48 hours at 20° C. and 100% relative atmospheric humidity. The plants are then placed into a greenhouse at a temperature of approximately 20° C. and a relative atmospheric humidity of approximately 80%. The test is evaluated 8 days after the inoculation. 0% means an efficacy which corresponds to that of the control, while an efficacy of 100% means that no disease is observed."}}, "data": [{"molecule": "Cc1ccc(-c2cc(F)ccc2NC(=O)c2cn(C)nc2C(F)F)cc1F", "note": "[N-(5,3′-difluoro-4′-methylbiphenyl-2-yl)-3-difluoromethyl-1-methyl-1H-pyrazole-4-carboxamide]", "values": [{"measurement": "chromatographic logP", "setting": "[1]", "value": 3.05}]}, {"molecule": "Cn1cc(C(=O)Nc2cc(F)ccc2-c2ccc(F)c(Cl)c2)c(C(F)F)n1", "note": "[drawing 15, reference compound]", "values": [{"measurement": "Efficacy in %", "setting": "[2]", "value": 52, "unit": "%"}]}, {"molecule": "Cc1ccc(-c2cc(F)ccc2N)cc1F", "note": "[Example (III-2), 5,3′-difluoro-4′-methylbiphenyl-2-ylamine]", "values": [{"measurement": "chromatographic logP", "setting": "[1]", "value": 2.94}]}, {"molecule": "Cn1cc(C(=O)Nc2ccc(F)cc2-c2ccc(Cl)c(F)c2)c(C(F)F)n1", "note": "[drawing 23]", "values": [{"measurement": "Efficacy in %", "setting": "[3]", "value": 84, "unit": "%"}]}, {"molecule": "Cn1cc(C(=O)Nc2cc(F)ccc2-c2ccc(F)c(Cl)c2)c(C(F)F)n1", "note": "[drawing 20, reference compound]", "values": [{"measurement": "Efficacy in %", "setting": "[4]", "value": 33, "unit": "%"}]}, {"molecule": "Cc1ccc(-c2cc(F)ccc2NC(=O)c2cn(C)nc2C(F)(F)F)cc1F", "note": "[N-(5,3′-difluoro-4′-methylbiphenyl-2-yl)-1-methyl-3-trifluoromethyl-1H-pyrazole-4-carboxamide]", "values": [{"measurement": "chromatographic logP", "setting": "[1]", "value": 3.27}]}, {"molecule": "Cn1cc(C(=O)Nc2ccc(F)cc2-c2ccc(F)c(Cl)c2)c(C(F)F)n1", "values": [{"measurement": "Efficacy in %", "setting": "[2]", "value": 87, "unit": "%"}]}, {"molecule": "Cn1cc(C(=O)Nc2cc(F)ccc2-c2ccc(F)c(Cl)c2)c(C(F)F)n1", "note": "[drawing 18, reference compound]", "values": [{"measurement": "Efficacy in %", "setting": "[5]", "value": 93, "unit": "%"}]}, {"molecule": "Cn1cc(C(=O)Nc2cc(F)ccc2-c2ccc(F)c(Cl)c2)c(C(F)F)n1", "note": "[drawing 22, reference compound]", "values": [{"measurement": "Efficacy in %", "setting": "[3]", "value": 0, "unit": "%"}]}, {"molecule": "Cn1cc(C(=O)Nc2ccc(F)cc2-c2ccc(Cl)c(F)c2)c(C(F)F)n1", "note": "[drawing 17]", "values": [{"measurement": "Efficacy in %", "setting": "[2]", "value": 100, "unit": "%"}]}, {"molecule": "Cn1cc(C(=O)Nc2ccc(F)cc2-c2ccc(Cl)c(F)c2)c(C(F)F)n1", "note": "[drawing 21]", "values": [{"measurement": "Efficacy in %", "setting": "[4]", "value": 78, "unit": "%"}]}, {"molecule": "Cn1cc(C(=O)Nc2ccc(F)cc2-c2ccc(Cl)c(F)c2)c(C(F)F)n1", "note": "[drawing 19]", "values": [{"measurement": "Efficacy in %", "setting": "[5]", "value": 100, "unit": "%"}]}, {"molecule": "Cn1cc(C(=O)Nc2ccc(F)cc2-c2ccc(Cl)c(F)c2)c(C(F)(F)F)n1", "note": "[N-(4′-chloro-5,3′-difluorobiphenyl-2-yl)-1-methyl-3-trifluoromethyl-1H-pyrazole-4-carboxamide]", "values": [{"measurement": "chromatographic logP", "setting": "[1]", "value": 3.26}]}, {"molecule": "Cn1cc(C(=O)Nc2ccc(F)cc2-c2ccc(Cl)c(F)c2)c(C(F)F)n1", "note": "[Example 1, N-(4′-chloro-3′,5-difluorobiphenyl-2-yl)-3-(difluoromethyl)-1-methyl-1H-pyrazole-4-carboxamide]", "values": [{"measurement": "chromatographic logP", "setting": "[1]", "value": 3.05}]}]}
